Laboratory results as given in ChEMBL document CHEMBL4483862, “Open-source discovery of chemical leads for next-generation chemoprotective antimalarials” (2018).

System: Plasmodium berghei
Experiment: Luciferase/luciferin-expressing antifolate-resistant parasites were used to infect a culture of HepG2 cells that were pre-incubated with compounds. Infected hepatocytes emit light due to the luciferase reaction. Assay results are presented as the percent inhibition of light emission compared to control. […]
Assay type: functional
Details: sporozoite; for IC90: read-out: LUCIFERASE INFECTION ASSAY - IC90
[1] = read-out: LUCIFERASE INFECTION ASSAY - IC50

Row | SMILES | IC90 | IC50 [1] | other results
1 | Cc1nc(CSCC(=O)Nc2nc(-c3ccccn3)cs2)cs1 | > 10 µM | – | IC50 (PBLUC_HILL_SLOPE 39.1, PBLUC_R_SQUARED 0.364, read-out: LUCIFERASE INFECTION ASSAY - IC50): 9.84 µM
2 | CCOC(=O)c1c(CN2C(=O)NC3(CCCc4sccc43)C2=O)nc2ccccc2c1C (stereo unspecified) | > 10 µM | > 10 µM | –
3 | CC(=O)Nc1cccc(-n2nnnc2Sc2ccc([N+](=O)[O-])cc2C#N)c1 | 9.5 µM | – | IC50 (PBLUC_HILL_SLOPE 17.4, PBLUC_R_SQUARED 0.386, read-out: LUCIFERASE INFECTION ASSAY - IC50): 8.38 µM
4 | O=C(O)COc1cc(-c2ccccc2)nc2ccccc12 | 4.53 µM | – | IC50 (HEPG2TOX_HILL_SLOPE 2.22, HEPG2TOX_R_SQUARED 0.747, PBLUC_HILL_SLOPE 12.7, PBLUC_R_SQUARED 0.342, read-out: LUCIFERASE INFECTION ASSAY - IC50): 3.81 µM
5 | CCOc1ccc(/C=C/c2ccc3c(Cl)cc(Cl)c(O)c3n2)cc1OC | > 10 µM | – | IC50 (HEPG2TOX_HILL_SLOPE 1.14, HEPG2TOX_R_SQUARED 0.782, PBLUC_HILL_SLOPE 2.47, PBLUC_R_SQUARED 0.699, read-out: LUCIFERASE INFECTION ASSAY - IC50): 4.52 µM
6 | CCCn1nc(C(=O)NCCc2ccc(-n3cccn3)cc2)c2ccccc2c1=O | 4.06 µM | – | IC50 (HEPG2TOX_HILL_SLOPE 1.69, HEPG2TOX_R_SQUARED 0.716, PBLUC_HILL_SLOPE 8.19, PBLUC_R_SQUARED 0.628, read-out: LUCIFERASE INFECTION ASSAY - IC50): 3.1 µM
7 | CCn1c(=O)n(CCC(=O)N(CC2CCCO2)c2nc3ccccc3s2)c2ccccc21 (stereo unspecified) | > 10 µM | > 10 µM | –
8 | CCOc1ccc(Nc2nc3cc(S(=O)(=O)N(CC)CC)ccc3o2)cc1 | > 10 µM | – | IC50 (HEPG2TOX_HILL_SLOPE 0.167, HEPG2TOX_R_SQUARED 0.162, read-out: LUCIFERASE INFECTION ASSAY - IC50): > 10 µM
9 | CSc1sc(-c2nc(C)cs2)c(C)c1-c1ccnc(SCc2c(Cl)cccc2Cl)n1 | > 6.46 µM | – | IC50 (FFLUC_HILL_SLOPE 1.79, FFLUC_R_SQUARED 0.514, read-out: LUCIFERASE INFECTION ASSAY - IC50): > 6.46 µM
10 | Cc1onc(-c2c(F)cccc2Cl)c1C(=O)Nc1ccc(Sc2ccccc2)nc1Sc1ccccc1 | 2.15 µM | 0.182 µM | –
11 | CC(C)(C)NC(=O)c1csc(C(O)c2cccc(C(F)(F)F)c2)n1 (stereo unspecified) | > 10 µM | – | IC50 (HEPG2TOX_HILL_SLOPE 14.6, HEPG2TOX_R_SQUARED 0.662, PBLUC_HILL_SLOPE 2.89, PBLUC_R_SQUARED 0.602, read-out: LUCIFERASE INFECTION ASSAY - IC50): 4.91 µM
12 | COc1ccc(C(=O)/C=C/c2cc(Br)c(OCC(=O)N(C)C)c(OC)c2)c(OC)c1 | 4.46 µM | – | IC50 (HEPG2TOX_HILL_SLOPE 1.45, HEPG2TOX_R_SQUARED 0.95, PBLUC_HILL_SLOPE 1.66, PBLUC_R_SQUARED 0.857, read-out: LUCIFERASE INFECTION ASSAY - IC50): 1.19 µM
13 | CNC(=O)c1ccc(/C=C/C(=O)c2ccc3c4c(cccc24)CC3)cc1 | 9.31 µM | – | IC50 (HEPG2TOX_HILL_SLOPE 8.19, HEPG2TOX_R_SQUARED 0.612, PBLUC_HILL_SLOPE 20.8, PBLUC_R_SQUARED 0.622, read-out: LUCIFERASE INFECTION ASSAY - IC50): 8.38 µM
14 | COc1ccc(C)cc1NC(=O)CN(Cc1ccc2c(c1)OCO2)C1CCCC1 | > 10 µM | > 10 µM | –
15 | Cc1nnc(SCCCc2nc(-c3ccncc3)no2)n1Cc1ccccc1 | > 10 µM | > 10 µM | –
16 | O=C(NCCCNc1ccnc2cc(Cl)ccc12)c1ccccc1F | 6.19 µM | – | IC50 (PBLUC_HILL_SLOPE 1.88, PBLUC_R_SQUARED 0.797, read-out: LUCIFERASE INFECTION ASSAY - IC50): 1.93 µM
17 | COc1cccc(Nc2nccc3nc(-c4cccc(C(F)(F)F)c4)[nH]c23)c1 | > 10 µM | – | IC50 (PBLUC_HILL_SLOPE 2.33, PBLUC_R_SQUARED 0.497, read-out: LUCIFERASE INFECTION ASSAY - IC50): 4.16 µM
18 | CN1CCN(c2ccc(-c3cn4c(-c5ccc6c(ccn6C)c5)cnc4cn3)cn2)CC1 | > 7.79 µM | – | IC50 (HEPG2TOX_HILL_SLOPE 8.77, HEPG2TOX_R_SQUARED 0.447, PBLUC_HILL_SLOPE 3.78, PBLUC_R_SQUARED 0.492, read-out: LUCIFERASE INFECTION ASSAY - IC50): 4.51 µM
19 | CC(Cn1cccn1)NC(=O)C(=O)Nc1ccccc1SC1CCCC1 (stereo unspecified) | 5.88 µM | – | IC50 (PBLUC_HILL_SLOPE 6.42, PBLUC_R_SQUARED 0.787, read-out: LUCIFERASE INFECTION ASSAY - IC50): 4.18 µM
20 | O=C(C[n+]1ccc(NC(=O)c2ccccc2)cc1)c1ccc(F)cc1 | > 7.95 µM | – | IC50 (PBLUC_HILL_SLOPE 9.15, PBLUC_R_SQUARED 0.444, read-out: LUCIFERASE INFECTION ASSAY - IC50): 6.42 µM
21 | COc1cccc(NC(=O)c2cccc(C3(CNCc4ccccc4F)CC3)c2)c1 | > 10 µM | > 10 µM | –
22 | COc1cc(-c2cc(-c3ccccc3F)cnc2N)ccc1O | 4.23 µM | – | IC50 (PBLUC_HILL_SLOPE 10.3, PBLUC_R_SQUARED 0.764, read-out: LUCIFERASE INFECTION ASSAY - IC50): 3.41 µM

Row | SMILES | IC90 | IC50 [1] | other results
23 | Cc1ccc2nc(C(F)(F)F)c(C(=O)NCc3cc(Cl)cc(Cl)c3)n2c1 | > 8.2 µM | > 8.2 µM | –
24 | N#Cc1ccccc1S(=O)(=O)Oc1ccccc1C(F)(F)F | > 10 µM | > 10 µM | –
25 | COc1cc(NC(=O)Cc2c(F)cccc2Cl)cc(OC)c1OC | > 10 µM | > 10 µM | –
26 | CN(C)S(=O)(=O)c1cccc(NC(=O)c2ccc3c(c2Cl)C(=O)c2ccccc2C3=O)c1 | > 10 µM | 8.82 µM | –
27 | Oc1c2n(c(=S)n1-c1ccc(Cl)cc1)CCS2 | > 11.6 µM | – | IC50 (FFLUC_HILL_SLOPE 3.58, FFLUC_R_SQUARED 0.45, PBLUC_HILL_SLOPE 7.55, PBLUC_R_SQUARED 0.0946, read-out: LUCIFERASE INFECTION ASSAY - IC50): 10.5 µM
28 | CC1CCc2[nH]c3ccc(C(=O)Nc4ccccc4N4CCCCC4)cc3c2C1 (stereo unspecified) | 0.818 µM | – | IC50 (FFLUC_HILL_SLOPE 10.4, FFLUC_R_SQUARED 0.246, PBLUC_HILL_SLOPE 2.51, PBLUC_R_SQUARED 0.903, read-out: LUCIFERASE INFECTION ASSAY - IC50): 0.341 µM
29 | CS(=O)(=O)c1ccccc1NC(=O)COC(=O)c1cccnc1N | > 10 µM | – | IC50 (FFLUC_HILL_SLOPE 0.757, FFLUC_R_SQUARED 0.634, read-out: LUCIFERASE INFECTION ASSAY - IC50): > 10 µM
30 | Cn1c(Sc2ncnc3sccc23)nc2ccccc21 | 5.38 µM | – | IC50 (PBLUC_HILL_SLOPE 9.4, PBLUC_R_SQUARED 0.756, read-out: LUCIFERASE INFECTION ASSAY - IC50): 4.26 µM
31 | COc1ccc(-c2cnc3cnc(-c4ccco4)cn23)cc1 | 7.67 µM | – | IC50 (HEPG2TOX_HILL_SLOPE 2.99, HEPG2TOX_R_SQUARED 0.923, PBLUC_HILL_SLOPE 3.57, PBLUC_R_SQUARED 0.717, read-out: LUCIFERASE INFECTION ASSAY - IC50): 4.15 µM
32 | COc1ccccc1C(=O)Nc1cc(-c2cn3cccnc3n2)ccc1C | > 10 µM | – | IC50 (HEPG2TOX_HILL_SLOPE 18.3, HEPG2TOX_R_SQUARED 0.752, PBLUC_HILL_SLOPE 13.2, PBLUC_R_SQUARED 0.331, read-out: LUCIFERASE INFECTION ASSAY - IC50): 9.08 µM
33 | O=C(Cn1cccc(C(F)(F)F)c1=O)NC(Cc1ccccc1)c1ccccc1 (stereo unspecified) | > 10 µM | > 10 µM | –
34 | O=[N+]([O-])c1ccc(NC2CCN(Cc3ccccc3)CC2)c2ccncc12 | > 10 µM | 9.37 µM | –
35 | N#Cc1ccc(Sc2c(Cl)cccc2Cl)c(NC(=O)c2cccc(Cl)c2)c1 | > 7.61 µM | – | IC50 (PBLUC_HILL_SLOPE 1.82, PBLUC_R_SQUARED 0.326, read-out: LUCIFERASE INFECTION ASSAY - IC50): 6.05 µM
36 | OC1(c2ccc(OC(F)F)cc2)CN(c2ccc(Br)cc2)C2=[N+]1c1ccccc1CC2 (stereo unspecified) | > 10 µM | – | IC50 (FFLUC_HILL_SLOPE 1.23, FFLUC_R_SQUARED 0.743, PBLUC_HILL_SLOPE 152, PBLUC_R_SQUARED 0.276, read-out: LUCIFERASE INFECTION ASSAY - IC50): 9.94 µM
37 | FC(F)(F)c1cccc(NC(S)=Nc2ccc(Cl)c(Cl)c2)c1 | > 9.04 µM | > 9.04 µM | –
38 | COc1cccc(-c2cn3c(-c4ccccc4)cnc3cn2)c1F | 10.2 µM | – | IC50 (PBLUC_HILL_SLOPE 10.4, PBLUC_R_SQUARED 0.353, read-out: LUCIFERASE INFECTION ASSAY - IC50): 8.27 µM
39 | CC(C(=O)Nc1cccc(S(=O)(=O)N2CCOCC2)c1)N(C)Cc1cccc(Cl)c1Cl (stereo unspecified) | > 10 µM | > 10 µM | –
40 | Cc1ccc(C(=O)NN(C)c2nc3ccccc3nc2C(F)(F)F)cc1 | 8.54 µM | – | IC50 (HEPG2TOX_HILL_SLOPE 2.8, HEPG2TOX_R_SQUARED 0.955, PBLUC_HILL_SLOPE 3.11, PBLUC_R_SQUARED 0.656, read-out: LUCIFERASE INFECTION ASSAY - IC50): 4.21 µM
41 | Cc1cc(C(=O)COc2ccc(C(N)=O)cc2)c(C)n1-c1ccc2c(c1)OCO2 | 5.43 µM | – | IC50 (HEPG2TOX_HILL_SLOPE 1.28, HEPG2TOX_R_SQUARED 0.792, PBLUC_HILL_SLOPE 4.73, PBLUC_R_SQUARED 0.266, read-out: LUCIFERASE INFECTION ASSAY - IC50): 3.41 µM
42 | CN1CCN(c2nc(-c3c[nH]c4ccccc34)c(-c3ccccc3)s2)CC1 | > 10 µM | – | IC50 (PBLUC_HILL_SLOPE 45.6, PBLUC_R_SQUARED 0.243, read-out: LUCIFERASE INFECTION ASSAY - IC50): 9.92 µM
43 | CC(Nc1ncnc2ccsc12)c1nc2ccccc2n1C(F)F (stereo unspecified) | 7.92 µM | – | IC50 (HEPG2TOX_HILL_SLOPE 1.22, HEPG2TOX_R_SQUARED 0.959, PBLUC_HILL_SLOPE 2.24, PBLUC_R_SQUARED 0.732, read-out: LUCIFERASE INFECTION ASSAY - IC50): 2.97 µM
